Assay results from the NIST ThermoML archive (doi:10.1021/je060217u).

Tests used:
[1] = xn = mol fraction of the nth substance listed; conditions: 298.15 K, 101 kPa, Liquid
[2] = 298.15 K; 101 kPa; Liquid

CCCO [propan-1-ol] + COC(=O)OC
Conditions	mass density [kg/m3]
[1], x1 = 1	799.75

CCCO [propan-1-ol]
Conditions	mass density [kg/m3]
[2]	799.75

CCO [ethanol] + COC(=O)OC
Conditions	mass density [kg/m3]
[1], x1 = 1	785.2

COC(=O)OC [dimethyl carbonate] + CCCCO
[1]
Conditions	mass density [kg/m3]
x2 = 0	1063.19
x2 = 0.0502	1047.97
x2 = 0.0999	1033.24
x2 = 0.1499	1018.51
x2 = 0.2003	1004.53
x2 = 0.2501	990.53
x2 = 0.2998	976.9
x2 = 0.3499	963.39
x2 = 0.4	950.13
x2 = 0.4501	937.02
x2 = 0.5	924.2
x2 = 0.55	911.58
x2 = 0.6	899.07
x2 = 0.65	886.83
x2 = 0.7	874.68
x2 = 0.7499	862.98
x2 = 0.7999	851.07
x2 = 0.85	839.53
x2 = 0.8999	828.11
x2 = 0.9499	817

COC(=O)OC [dimethyl carbonate]
Conditions	mass density [kg/m3]
[2]	1063.19

CCCCO [butan-1-ol] + COC(=O)OC
Conditions	mass density [kg/m3]
[1], x1 = 1	806.04

CCCCO [butan-1-ol]
Conditions	mass density [kg/m3]
[2]	806.04

COC(=O)OC [dimethyl carbonate] + CCO
[1]
Conditions	mass density [kg/m3]
x2 = 0	1063.19
x2 = 0.0501	1052.75
x2 = 0.1	1042.29
x2 = 0.1501	1031.54
x2 = 0.1998	1020.64
x2 = 0.2498	1009.34
x2 = 0.2998	997.73
x2 = 0.3501	985.68
x2 = 0.4002	973.28
x2 = 0.4499	960.59
x2 = 0.5	947.4
x2 = 0.55	933.74
x2 = 0.6001	919.57
x2 = 0.65	905
x2 = 0.6999	889.89
x2 = 0.7499	874.1
x2 = 0.8001	857.71
x2 = 0.8498	840.7
x2 = 0.8998	822.98
x2 = 0.95	804.45

CCO [ethanol]
Conditions	mass density [kg/m3]
[2]	785.2

COC(=O)OC [dimethyl carbonate] + CCCO
[1]
Conditions	mass density [kg/m3]
x2 = 0	1063.19
x2 = 0.0501	1050.5
x2 = 0.1002	1037.73
x2 = 0.1498	1025.44
x2 = 0.1999	1012.47
x2 = 0.2502	999.85
x2 = 0.2999	987.13
x2 = 0.3498	974.39
x2 = 0.3998	961.45
x2 = 0.4499	948.47
x2 = 0.5001	935.29
x2 = 0.55	922.19
x2 = 0.6	908.92
x2 = 0.6501	895.57
x2 = 0.7001	882.18
x2 = 0.75	868.68
x2 = 0.8002	855.15
x2 = 0.8501	841.36
x2 = 0.9002	827.59
x2 = 0.9502	813.83
